One test relates to cumulus-oocyte complexes. The experiment in a line: Cumulus expansion assay in vitro. It is filed as cell-based, mice. As to conditions: competing with PGE2. On the procedure:
Folliculogenesis is induced in immature female mice (strain: CD1 (ICR) from Charles River) at an age of 14-18 days by a single dose (intraperitoneally) of 10 I.U. of PMSG (Pregnant Mare Serum Gonadotropin; Sigma G-4877, Batch 68H0909). 47-50 hours after the injection, the ovaries are removed and the cumulus-oocyte complexes are removed. The cumulus complex is not yet expanded at this stage.
The cumulus-oocyte complexes are then incubated with prostaglandin E2 (PGE2) (1 μM), vehicle control (ethanol) or test substances for 20-24 hours. Medium: alpha-MEM medium with 0.1 mM IBMX, pyruvates (0.23 mM), glutamines (2 mM), pen/strep (100 IU/ml pen. and 100 μg/ml strep.) and HSA (8 mg/ml). Cumulus expansion is then established through the division into four stages (according to Vanderhyden et al. Dev Biol. 1990 August; 140(2):307-317).

The target of test [1] is T1, human prostaglandin E2 (subtype EP2) receptor (Homo sapiens, UniProt P43116).
T1 construct: host or cells: cells in a cell culture plate
T1 sequence (P43116 whole entry): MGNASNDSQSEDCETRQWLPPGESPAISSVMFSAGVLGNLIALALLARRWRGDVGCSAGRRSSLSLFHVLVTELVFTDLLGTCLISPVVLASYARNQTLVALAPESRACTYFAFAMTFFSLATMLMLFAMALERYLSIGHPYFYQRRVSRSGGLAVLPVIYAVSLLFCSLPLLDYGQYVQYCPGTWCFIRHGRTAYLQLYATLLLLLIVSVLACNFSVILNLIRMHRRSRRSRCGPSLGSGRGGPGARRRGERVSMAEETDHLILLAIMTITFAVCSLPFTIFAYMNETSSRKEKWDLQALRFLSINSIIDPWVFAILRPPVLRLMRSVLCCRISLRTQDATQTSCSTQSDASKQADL
The experiment in a line: cAMP antagonism assay (HTRF cAMP detection, in the presence of PGE2). It counts as cell-based. On the procedure:
(§1) The binding of PGE2 to the EP2 subtype of the human PGE2 receptor induces activation of membrane-associated adenylate cyclases and leads to the formation of cAMP. In the presence of the phosphodiesterase inhibitor IBMX, cAMP which has accumulated due to this stimulation and been released by cell lysis is employed in a competitive detection method. In this assay, the cAMP in the lysate competes with cAMP-XL665 for binding of an Eu cryptate-labeled anti-cAMP antibody.
(§2) The two signals are measured in a suitable measuring instrument with a time lag, i.e. after the background fluorescence has declined.
(§3) The substance solutions (0.75 μl) containing 30% DMSO are introduced into an assay plate and dissolved in 16 μl of a KRSB+IBMX stimulation solution (1× Krebs-Ringer Bicarbonate Buffer; Sigma-Aldrich #K-4002; including 750 μM 3-isobutyl-1-methylxanthine Sigma-Aldrich #I-7018), and then 15 μl thereof are transferred into a media-free cell culture plate which has been washed with KRSB shortly beforehand.
After preincubation at room temperature (RT) for 30 minutes, 5 μl of a 4×PGE2 solution (11 nM) are added, and incubation is carried out in the presence of the agonist at RT for a further 60 min (volume: ˜20 μl) before the reaction is then stopped by adding 5 μl of lysis buffer and incubated at RT for a further 20 min (volume: ˜25 μl). The cell lysate is then transferred into a measuring plate and measured in accordance with the manufacturer's information (cyclic AMP kit Cisbio International #62AMPPEC).
On the technique in general: TR-FRET usually uses a lanthanide donor and a delayed reading to cut background.

Test [2] concerns the target T1, human prostaglandin E2 (subtype EP2) receptor. In words: cAMP agonism assay (HTRF cAMP detection). It counts as cell-based. On the procedure: as §1, §2, §3
After incubation at room temperature (RT; volume: ˜15 μl) for 60 minutes, the reaction is then stopped by adding 5 μl of lysis buffer and incubated at RT for a further 20 min (volume: ˜20 μl). The cell lysate is then transferred into a measuring plate and measured in accordance with the manufacturer's information (cyclic AMP kit Cisbio International #62AMPPEC).

Where [3] appears, read: cAMP antagonism assay, EP2 receptor, in presence of PGE2, read-out: Antagonism [IC50.
The mark [4] stands for this setting: cAMP agonism assay, EP2 receptor, read-out: Agonism [ED50.

Each structure is given as a SMILES string. Where two headings read alike, the source gives them in different places.

Turning to `CC(C)Oc1ccc2c(=O)c3cc(C(=O)O)ccc3oc2c1` [AH 6809, reference compound], the “suppression of cumulus expansion” value with cumulus-oocyte complexes (concentration of 100-200 μM) is listed as “about 20%”.
By IC50 is commonly meant the point on the concentration scale where inhibition reaches its midpoint. With `O=C(NC1CCN(c2ccnc3cc(Cl)ccc23)CC1)c1ccccc1Br` [Example 1, 2-Bromo-N-[1-(7-chloro-quinolin-4-yl)-piperidin-4-yl]-benzamide], the IC50 in test [1] (setting [3]) is 600 nM. For the same molecule, the EC50 in test [2] (setting [4]) is over 19000 nM.
On to `O=C(NC1CCN(c2ccnc3cc(Cl)ccc23)CC1)c1ccccc1Cl` [Example 4, 2-Chloro-N-[1-(7-chloro-quinolin-4-yl)-piperidin-4-yl]-benzamide], for which the IC50 in test [1] (setting [3]) was 1000 nM. The EC50 in test [2] (setting [4]) is over 19000 nM.
`O=C(NC1CCN(c2ccnc3cc(Cl)ccc23)CC1)c1ccccc1I` [Example 10, N-[1-(7-Chloro-quinolin-4-yl)-piperidin-4-yl]-2-iodo-benzamide]: the half-inhibitory concentration (IC50) in test [1] (setting [3]) was 1300 nM.
`O=C(NC1CCN(c2ccnc3cc(Cl)ccc23)CC1)c1ccc(F)c(F)c1F` [Example 20, N-[1-(7-Chloro-quinolin-4-yl)-piperidin-4-yl]-2,3,4-trifluoro-benzamide]: the IC50 in test [1] (setting [3]) stood at 1600 nM. Moreover, the EC50 in test [2] (setting [4]) was over 19000 nM.
Consider `O=C(NC1CCN(c2ccnc3cc(Cl)ccc23)CC1)c1cccc(Cl)c1Cl` [Example 25, 2,3-Dichloro-N-[1-(7-chloro-quinolin-4-yl)-piperidin-4-yl)-benzamide], for which, in test [1] (antagonism test, read-out: IC50 in the antagonism test), the IC50 came to 200 nM. The “suppression of cumulus expansion” value in the test on cumulus-oocyte complexes (one tenth of the concentration (of 100-200 μM)) is recorded as about 50%. The EC50 in test [2] (setting [4]) was over 19000 nM; in test [2] (cellular agonism test, read-out: EC50 in the cellular agonism test), over 19000 nM.
`O=C(NC1CCN(c2ccnc3cc(Cl)ccc23)CC1)c1ccc([N+](=O)[O-])o1` [Example 26, 5-Nitro-furan-2-carboxylic acid [1-(7-chloro-quinolin-4-yl)-piperidin-4-yl]-amide]: the IC50 in test [1] (setting [3]) worked out at 2000 nM. The EC50 in test [2] (setting [4]) was over 19000 nM.
`O=C(NC1CCN(c2ccnc3cc(C(F)(F)F)ccc23)CC1)c1cccc(Cl)c1Cl` [Example 34, 2,3-Dichloro-N-[1-(7-trifluoromethyl-quinolin-4-yl)-piperidin-4-yl]-benzamide]: the concentration for half-maximal inhibition (IC50) in test [1] (setting [3]) turned out to be 200 nM. Moreover, in test [2] (setting [4]), the EC50 is over 19000 nM.
On to `O=C(NC1CCN(c2ccnc3c(Cl)cccc23)CC1)c1cccc(Cl)c1Cl` [Example 35, 2,3-Dichloro-N-[1-(8-chloro-quinolin-4-yl)-piperidin-4-yl]-benzamide], for which the IC50 in test [1] (setting [3]) is 100 nM. The EC50 in test [2] (setting [4]) was over 19000 nM.
Take `O=C(NC1CCN(c2ccnc3cc(Br)ccc23)CC1)c1cccc(Cl)c1Cl` [Example 36, N-[1-(7-Bromo-quinolin-4-yl)-piperidin-4-yl]-2,3-dichloro-benzamide]: in test [1] (setting [3]), the IC50 worked out at 100 nM. For the same molecule, the EC50 in test [2] (setting [4]) was over 19000 nM.
Turning to `O=C(NC1CCN(c2ncnc3cc(Cl)ccc23)CC1)c1cccc(Cl)c1Cl` [Example 37, 2,3-Dichloro-N-[1-(7-chloro-quinazolin-4-yl)-piperidin-4-yl]-benzamide], in test [1] (setting [3]), the IC50 amounted to 600 nM. The EC50 in test [2] (setting [4]) is over 19000 nM.
As for `N#Cc1ccc2c(N3CCC(NC(=O)c4cccc(Cl)c4Cl)CC3)ccnc2c1` [Example 40, 2,3-Dichloro-N-[1-(7-cyano-quinolin-4-yl)-piperidin-4-yl]-benzamide], in test [1] (setting [3]), the concentration for half-maximal inhibition (IC50) was 900 nM. Also, the EC50 in test [2] (setting [4]) was over 19000 nM.

The values are drawn from patent publication US20080125463A1, “N-(1-hetarylpiperidin-4-yl)(het)arylamides as EP2 receptor modulators” (priority 2006, published 2008).
